The target of this test is T1, KV3.4 channels (Homo sapiens, UniProt Q03721).
T1 construct: expressed in transfected cells; host or cells: CHO cells, transient transfection with Lipofectamine 2000; cDNAs provided by Professor Goldstein, University of Chicago
T1 sequence (Q03721 1-635): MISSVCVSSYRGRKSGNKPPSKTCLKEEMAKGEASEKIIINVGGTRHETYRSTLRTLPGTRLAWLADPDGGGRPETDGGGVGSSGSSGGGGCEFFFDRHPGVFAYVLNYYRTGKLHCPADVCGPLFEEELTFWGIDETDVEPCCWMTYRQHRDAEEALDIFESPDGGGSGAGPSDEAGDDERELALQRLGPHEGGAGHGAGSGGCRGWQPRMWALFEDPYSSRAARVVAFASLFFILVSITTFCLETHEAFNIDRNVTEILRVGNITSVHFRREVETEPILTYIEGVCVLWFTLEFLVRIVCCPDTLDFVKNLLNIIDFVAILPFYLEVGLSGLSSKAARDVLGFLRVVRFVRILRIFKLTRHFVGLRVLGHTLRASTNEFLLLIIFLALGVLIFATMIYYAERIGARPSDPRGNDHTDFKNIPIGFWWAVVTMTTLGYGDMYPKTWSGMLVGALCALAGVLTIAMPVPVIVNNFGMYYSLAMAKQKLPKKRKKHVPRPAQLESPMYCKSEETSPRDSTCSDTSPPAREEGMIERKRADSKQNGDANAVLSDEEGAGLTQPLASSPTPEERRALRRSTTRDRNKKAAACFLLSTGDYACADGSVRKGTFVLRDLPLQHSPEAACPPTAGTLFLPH
T1 sequence (Q9Y6H6 1-103 partner): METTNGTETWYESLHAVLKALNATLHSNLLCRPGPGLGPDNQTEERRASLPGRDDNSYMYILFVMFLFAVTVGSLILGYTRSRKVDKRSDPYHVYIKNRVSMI
Put plainly: Whole-cell patch clamp of Kv3.4 currents in CHO cells transiently transfected with Kv3.4/MiRP2. Type of test: cell-based. The settings on record: peptide 100 nM, acute application; CHO cells transfected with Kv3.4/MiRP2; whole-cell patch clamp. The method, then: KV3.4 and MiRP2 channel subunits were expressed in Chinese hamster ovary (CHO) cells by transient transfection. CHO cells were grown in 100 mm plastic Petri dishes in Dulbecco's Modified Eagle Medium containing 10% fetal bovine serum (FBS), non-essential amino acids (0.1 mm), penicillin (50 U/ml), and streptomycin (50 μg/ml) in a humidified atmosphere at 37°C with 5% CO2 (Miceli et al., [2015]). KV3.4 and MiRP2 cDNAs were kindly provided by the Professor Goldstein of the Department of Pediatrics and Institute for Molecular Pediatric Sciences, University of Chicago, USA. For electrophysiological experiments, cells were seeded on glass cover-slips (Glaswarenfabrik Karl Hecht KG, Sondheim, Germany) coated with poly-L-lysine (50 μg/mL) and transfected the next day with the appropriate cDNAs using Lipofectamine 2000 according to guidelines for transfection. We performed electrophysiological experiments 48 h after transfection.
Currents from CHO cells were recorded at room temperature 1-2 days after transfection. The extracellular solution contained the following (in mM): 138 NaCl, 5.4 KCl, 2 CaCl2, 1 MgCl2, 10 glucose and 10 HEPES, adjusted pH 7.4 with NaOH. The pipette solution contained (in mM) the following: 140 KCl, 2 MgCl2, 10 EGTA, 10 HEPES, 5 Mg-ATP, adjusted pH 7.4 with KOH (Miceli et al., [2015]). KV3.4 currents were measured by applying voltage steps from −100 mV to +60 mV from a holding potential of −80 mV (Abbott et al., [2001]). Moreover, the total outward K^+ currents were recorded in NGF-differentiated PC-12 cells using the extracellular solution contained the following (in mM): 150 NaCl, 5.4 KCl, 3 CaCl2, 1 MgCl2, 10 HEPES, adjusted pH 7.4 with NaOH. The pipette solution contained the following (in mM): 140 KCl, 2 MgCl2, 10 HEPES, 10 glucose, 10 EGTA, and 1 Mg-ATP adjusted at pH 7.4 with KOH (Diochot et al., [1998]). All experiments were performed in the presence of 50 nM tetrodotoxin (TTX) and 10 μ M nimodipine in the extracellular solution. To discriminate K^+ current components appropriate electrophysiological protocols were used (Pannaccione et al., [2007]). Steady-state activation and inactivation properties were measured by using appropriate protocols (Pannaccione et al., [2005]). Capacitive currents were elicited by 5-mV depolarizing pulses from −80 mV and acquired at a sampling rate of 50 kHz. The capacitance of the membrane was calculated according to the following equation: Cm = τc·Io/ΔEm (1-I∞/Io), where Cm is membrane capacitance, τc is the time constant of the membrane capacitance, Io is the maximum capacitance current value, ΔEm is the amplitude of the voltage step, and I∞ is the amplitude of the steady-state current. K^+ currents were recorded by patch-clamp technique in CHO and NGF-differentiated PC-12 cells using a commercially available amplifier (Axopatch 200B, Molecular Devices) and Digidata 1322A interface (Molecular Devices, USA). The whole-cell configuration of the patch-clamp technique was adopted using glass micropipettes with a resistance of 2.5-5.0 MΩ. Data were acquired and analyzed using the pClamp software (version 9, Molecular Devices).
For the acute treatment, each peptide has been added in the extracellular solution. For each cell, we first recorded K^+ currents as previously described, in the absence of peptides. After that, we switched from the extracellular solution without BDS-I peptides to the extracellular solution containing the BDS-I peptide. In these conditions, we recorded K^+ currents until the steady-state was reached. This protocol has been performed to test the effect on KV3.4 currents of each BDS-I fragment as well as of BDS-I[1-8scr].
To identify the smallest BDS-I amino acid sequence able to block Kv3.4 activity, we evaluated the effect of the newly synthesized BDS-I fragments in CHO cells transiently transfected with Kv3.4/MiRP2, by patch clamp technique in whole cell configuration. […]
Background: Patch clamp records ionic current or voltage across a cell membrane.
Consider “H-GDLWILRG-OH [BDS-I[13-20], overlapping 8-amino-acid fragment of BDS-I]”, for which the “ability to inhibit Kv3.4 currents (in words)” value is “did not”. The same measure for “H-NAYKWPNI-OH [BDS-I[31-38], overlapping 8-amino-acid fragment of BDS-I]”: “did not”; for “H-RGTAPGGY-OH [BDS-I[19-26], overlapping 8-amino-acid fragment of BDS-I]”: “did not”. As for “H-SGKPGRGD-OH [BDS-I[7-14], overlapping 8-amino-acid fragment of BDS-I]”, the entry is “did not”; as for “H-GYGYTSNA-OH [BDS-I[25-32], overlapping 8-amino-acid fragment of BDS-I]”, “did not”; as for “H-NIAAYPH-OH [BDS-I[37-43], C-terminal 7-amino-acid fragment of BDS-I]”, “did not”.

Source of the values: publication PMC6629785, “Synthesis and Pharmacological Evaluation of a Novel Peptide Based on Anemonia sulcata BDS-I Toxin as a New KV3.4 Inhibitor Exerting a Neuroprotective Effect Against Amyloid-β Peptide” (Frontiers in Chemistry, 2019).
